Reference: publication PMC3502511, “Inhibition of the Prokaryotic Pentameric Ligand-Gated Ion Channel ELIC by Divalent Cations” (PLoS Biology, 2012)
Like-named read-outs stand apart in the source and are kept apart here.

What was measured:
Type in all cases: cell-based, Erwinia chrysanthemi
ELIC WT [1] = target: T1, ELIC WT (Dickeya chrysanthemi, UniProt P0C7B7, INS163G); test: cell-based; conditions: WT; for Slope: Schild plot slope
T1 construct: expressed in transfected cells; host or cells: X. laevis oocytes (cRNA injection, pTLN vector)
Description: (§1) Constructs containing the gene of either the WT or mutant channels preceded by the signal sequence of the chicken α7nAchR were cloned into the pTLN vector for expression in X. laevis oocytes. After linearization of the plasmid DNA by MluI, capped complementary RNA was transcribed with the mMessage mMachine kit (Ambion) and purified with the RNeasy kit (Qiagen). For expression, 1–50 ng of RNA was injected into defolliculated oocytes. Two-electrode voltage clamp measurements were performed 1 d after injection at 20°C (OC-725B, Warner Instrument Corp.). Currents were recorded in bath solutions containing 10 mM HEPES (pH 7), 130 mM NaCl, and the indicated concentrations of cysteamine and divalent cations. In case of solutions containing Zn^2+, cysteamine was replaced by propylamine. The membrane potential in all dose–response measurements was set to −40 mV. As ELIC is permeable to divalent cations, we tested if endogenous calcium-activated chloride channels affected our measurements. To chelate intracellular calcium ions, the oocytes were incubated for 15 to 30 min in bath solutions lacking divalent ions but containing 10 µM BAPTA-AM.

ELIC R91A = target: T2, ELIC R91A (Dickeya chrysanthemi, UniProt P0C7B7, INS163G/R91A); test: Two-electrode voltage clamp, ELIC R91A in oocytes; conditions: R91A
T2 construct: expressed in transfected cells; host or cells: X. laevis oocytes
Description: as §1

ELIC D113A/D158A = target: T3, ELIC D113A/D158A (Dickeya chrysanthemi, UniProt P0C7B7, D113A/D158A/INS163G); test: cell-based; conditions: agonist propylamine; for EC50: 113A/158A
T3 construct: expressed in transfected cells; host or cells: X. laevis oocytes
Description: as §1

ELIC WT [2] = target: T4, ELIC WT (Dickeya chrysanthemi, UniProt P0C7B7); test: cell-based; conditions: WT, agonist propylamine
T4 construct: expressed in transfected cells; host or cells: X. laevis oocytes (cRNA injection, pTLN vector)
Description: as §1

ELIC H168A = target: T5, ELIC H168A (Dickeya chrysanthemi, UniProt P0C7B7, H168A/INS163G); test: Two-electrode voltage clamp, ELIC H168A in oocytes; conditions: agonist propylamine
T5 construct: expressed in transfected cells; host or cells: X. laevis oocytes
Description: as §1

ELIC H176A = target: T6, ELIC H176A (Dickeya chrysanthemi, UniProt P0C7B7, H176A/INS163G); test: Two-electrode voltage clamp, ELIC H176A in oocytes; conditions: agonist propylamine
T6 construct: expressed in transfected cells; host or cells: X. laevis oocytes
Description: as §1

ELIC = target: T7, ELIC (Dickeya chrysanthemi, UniProt P0C7B7, INS163G); test: Agonist concentration jumps, outside-out patches from HEK 293 cells expressing ELIC
T7 construct: expressed in transfected cells; host or cells: HEK 293 cells (ATCC CRL-1573), pcDNA3
Description: Human embryonic kidney 293 cells (American Type Culture Collection-CRL-1573;LGC Promochem) were maintained at 37°C in a 95% air/5% CO2 incubator in DMEM supplemented with 0.11 g/l sodium pyruvate, 10% (v/v) heat-inactivated fetal bovine serum, 100 U/ml penicillin G, 100 µg/ml streptomycin sulfate, and 2 mM L-glutamine (Invitrogen). Cells (passaged every 2 d, up to 30 times) were plated and transfected by calcium phosphate-DNA coprecipitation, with a total amount of DNA of 3 µg/dish (82% ELIC and 18% eGFP DNA, both subcloned in pcDNA3).
Cells were bathed in an extracellular solution containing (mM): 150 KCl, 0.05 or 0.2 CaCl2, and 10 HEPES, pH adjusted to 7.4 with KOH (osmolarity 310 mOsm). Patch pipettes were pulled from thick-walled borosilicate glass (GC150F; Harvard Apparatus) and fire polished to a resistance of 8–12 MΩ. Intracellular solution contained (mM): 150 KCl, 0.5 CaCl2, 5 EGTA, and 10 HEPES, pH adjusted to 7.4 with KOH. Agonist-evoked currents were recorded at 20°C with an Axopatch 200B amplifier (Molecular Devices) from outside-out patches held at −100 mV. Patches were stepped to this holding voltage 0.2 s before the agonist was applied and otherwise held at −40 mV. No correction for junction potential was applied (calculated value 0.2 mV). Currents were filtered at 5 kHz, digitized at 50 kHz with Digidata 1322A, and saved directly on computer with Clampex software (all MDS Analytical Technologies).
All concentration jumps were performed using a piezo stepper (Burleigh instruments) with an application tool made from theta tube glass (Hilgenberg; final tip diameter, 150 µm). Voltage commands for the piezo stepper were 200 ms square pulses conditioned by low-pass eight-pole Bessel filtering (−3 dB frequency 5 kHz) to smooth oscillations. Actual exchange time was estimated by recording the open-tip response to the application of diluted extracellular solution (70% water) after rupture of the patch. Only patches in which the 20%–80% exchange time was faster than 250 µs were included in the analysis.
Agonist solutions were freshly prepared every day from 1 M stock solutions. Propylamine was applied at a concentration known to elicit maximum response (20 mM and 50 mM, for 50 and 200 µM Ca^2+, respectively). Traces shown are averages of 5 or 10 individual agonist currents, separated by at least 10 s. Responses were averaged, and the time course of activation and deactivation (between 95% and 5% of the peak current level) was fitted with one exponential component (program Clampfit 9.0).

[3] = Ca^2+ 50 µM, propylamine 20 mM (last line, repeat)
[4] = Ca^2+ 50 µM, propylamine 20 mM, −100 mV (first line)
[5] = Ca^2+ 200 µM, propylamine 20 mM
[6] = Ca^2+ 200 µM, propylamine 50 mM

[Sr+2] [Sr^2+]
Ki (ELIC WT [1]; Schild analysis, agonist cysteamine, read-out: Ki app): 0.85 mM | Slope (ELIC WT [1]; agonist cysteamine): 0.9±0.02 | pA (ELIC WT [1]; Schild plot x-intercept (log of mM), agonist cysteamine, −40 mV): −0.07±0.02

C[N+](C)(C)C [TMA, tetramethylammonium]
Ki (ELIC R91A; Schild analysis, read-out: Ki app): 6 mM | Slope (ELIC R91A; Schild plot slope): 0.8±0.1 | pA (ELIC R91A; agonist cysteamine): 0.78±0.18

[Zn+2] [Zn^2+, zinc]
Ki (ELIC WT [1]; Schild analysis, agonist propylamine, read-out: Ki app): 0.007 mM | Slope (ELIC WT [1]; agonist propylamine): 1.2±0.01 | pA (ELIC WT [1]; Schild plot x-intercept, agonist propylamine): −2.16±0.13 | Ki (ELIC WT [1]; agonist propylamine, read-out: Schild plot x-intercept): 0.008 mM | modulation in the double mutant (ELIC D113A/D158A; D113A/D158A): abolish

CCCN [propylamine]
EC50 (ELIC D113A/D158A; Zn^2+ 0 mM): 3.7 mM | EC50 (ELIC D113A/D158A; Zn^2+ 0.01 mM): 4.56 mM | EC50 (ELIC D113A/D158A; Zn^2+ 0.1 mM): 4.22 mM | EC50 (ELIC WT [2]; Zn^2+ 0.01 mM): 0.92 mM | EC50 (ELIC WT [2]; Zn^2+ 0.05 mM): 3.72 mM | EC50 (ELIC WT [2]; Zn^2+ 0.1 mM): 10.1 mM | EC50 (ELIC H168A; Zn^2+ 0 mM): 0.67 mM | EC50 (ELIC H168A; Zn^2+ 0.01 mM): 1.17 mM | EC50 (ELIC H168A; Zn^2+ 0.05 mM): 4.82 mM | EC50 (ELIC H168A; Zn^2+ 0.1 mM): 12.2 mM | EC50 (ELIC H176A; Zn^2+ 0 mM): 5.16 mM | EC50 (ELIC H176A; Zn^2+ 0.01 mM): 11.9 mM | EC50 (ELIC H176A; Zn^2+ 0.025 mM): 25.5 mM | τdecay (ELIC; [3]): 33.5 ± 6.9 ms | τrise (ELIC; [3]): 19.6 ± 3.1 ms | τdecay (ELIC; [4]): 34.7 ± 5.6 ms | τrise (ELIC; [4]): 16.7 ± 1.5 ms | τdecay (ELIC; [5]): 23.9 ± 3.1 ms | τrise (ELIC; [5]): 38.5 ± 6.7 ms | τdecay (ELIC; [6]): 36.7 ± 12.7 ms | τrise (ELIC; [6]): 16.4 ± 2.2 ms
